Source: patent US20130029970A1 (priority 2009, published 2013)
Where two headings read alike, the source gives them in different places.

What was measured:
[1] = target: T1, human CB1 receptors (Homo sapiens, UniProt P21554); assay: cAMP assay in HEK-293 cells, hCB1 agonist; format: cell-based; details: inhibition of forskolin-stimulated cAMP, HEK-293 cells
T1 construct: (cDNA clone) CNR01L000
Text: (§1) Stable, HEK-293-derived cell lines that recombinantly express hCBI or hCB2 were established. In brief, the clone hCB1 (CNR IL) or hCB2 (CNR2) was transfected into human embryonic kidney cells (HEK-293) using Lipofectamine 2000 (Gibco, Cat#11668-019) according to the manufacturer's protocol. Transfected clones were isolated by single colony purification and clones were screened for receptor expression using a whole cell, ^3H—CP 55,940 radioligand binding assay. HEK-293 stable cells were maintained in Dulbecco's modified Eagles medium (DMEM) containing 10% fetal bovine serum, 2 mM L-glutamine and 0.5 mg/mL G-418.
(§2) Functional assays which monitor G-protein coupled receptor or downstream cellular responses can be used to characterize potential CB1 receptor and/or CB2 receptor agonist or antagonist activities. Direct activation (or inhibition of activation) can be monitored using a GTPγS assay (membrane-based assay) or cAMP assay (whole cell-based assay).
(§3) cAMP assays were performed in HEK-293 cells stably expressing human CB1 or CB2 receptors. For cannabinoid receptor functional assays measuring agonist effects on cellular cAMP levels, monolayers of cultured cells were harvested with enzyme-free PBS-based cell dissociation buffer (Gibco, Cat#13151-04). Cells suspensions were centrifuged and the cells were washed once with PBS, were centrifuged again, and the cells were re-suspended in HBSS (Hank's Balanced Salt Solution, Cellgro, Cat #21-022-CV) solution containing 10 mM HEPES and 0.1% fatty acid free BSA (Sigma, Cat #A0281). Cell suspensions were prepared at 1,500,000 cells per ml. Stock solutions of test substances (10 mM) in DMSO were diluted to 1 mM using 30% DMSO as diluent. Test substances of solutions (1 mM) were further diluted down to 3× of final assay concentrations in the above HBSS buffer containing 0.1% BSA in the presence of 90 uM forskolin (Sigma Cat#F6886). To perform the assay, 20 uL of cell suspension (1,500,000 cells/mL) were added to each well in 96 well plate and treated with 10 uL test substance solution diluted as described above. Cells and compounds were incubated at 37° C. for 30 minutes. Cells were lysed and cAMP concentration was measured using DiscoveRx −XS+ cAMP assay kit (DiscoveRx Corporation Ltd., Fremont, Calif., USA, Cat #90-0075-03), following the manufacturer's protocol. GraphPad Prism software was used to calculate EC50 values using sigmoidal dose response curve fitting. The maximal amount of cAMP produced by forskolin was defined as 100%. CB1 or CB2 agonists reduced forskolin-stimulated cAMP signaling. The EC50 value of an agonist compound was defined as the concentration at which 50% of the forskolin-stimulated cAMP synthesis was inhibited.

[2] = target: T2, recombinant human cannabinoid receptor CB2 (Homo sapiens, UniProt P34972); assay: Cannabinoid receptor radioligand binding assay, [3H]-CP 55,940 displacement, hCB2
T2 construct: (cDNA clone) CNR0200000
T2 sequence (P34972 whole entry): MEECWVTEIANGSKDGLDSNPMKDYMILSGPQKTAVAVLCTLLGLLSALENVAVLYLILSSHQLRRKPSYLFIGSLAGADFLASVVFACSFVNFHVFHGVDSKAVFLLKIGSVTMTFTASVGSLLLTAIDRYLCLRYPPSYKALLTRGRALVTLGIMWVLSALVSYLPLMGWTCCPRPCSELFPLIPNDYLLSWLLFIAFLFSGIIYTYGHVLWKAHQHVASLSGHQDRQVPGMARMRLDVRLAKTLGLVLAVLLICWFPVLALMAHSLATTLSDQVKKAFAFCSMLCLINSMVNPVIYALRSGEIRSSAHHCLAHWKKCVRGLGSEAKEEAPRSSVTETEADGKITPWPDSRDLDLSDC
Method: Membranes were isolated from transfected cells as follows. Monolayers of cultured cells were washed twice with phosphate-buffered saline (PBS). […] Homogenates were centrifuged 10 minutes at 1000×g at 4° C. The supernatant was collected and was centrifuged for 1 hour at 40,000×g. The supernatant was then decanted and the resulting pellet was re-suspended in 20 mM HEPES, pH 7.4, 5 mM MgCl2, 1 mM EDTA, 10% sucrose with complete cocktail protease inhibitors. Protein concentration of membrane suspensions were measured by Bradford Protein Assay using bovine serum albumin as the standard (BioRad catalog #500-0006). Protein concentrations of membrane suspensions were adjusted with the final buffer in the range of 5 to 10 mg/mL and were stored at −80° C. until further use.
A rapid filtration technique using Millipore FB filter plates (Catalog #MADVNOB) and filtration apparatus (Millipore system Catalog MAVM0960R) with vacuum aspiration was used to harvest and rinse labeled membranes (8 times with 0.2 mL of chilled binding buffer). […] Binding data were analyzed using GraphPad Prism (GraphPad Software, Inc. San Diego, Calif.).

[3] = target: T3, recombinant human cannabinoid receptor CB1 (Homo sapiens, UniProt P21554); assay: Cannabinoid receptor radioligand binding assay, [3H]-CP 55,940 displacement, hCB1
T3 construct: (cDNA clone) CNR01L000
T3 sequence (P21554 whole entry): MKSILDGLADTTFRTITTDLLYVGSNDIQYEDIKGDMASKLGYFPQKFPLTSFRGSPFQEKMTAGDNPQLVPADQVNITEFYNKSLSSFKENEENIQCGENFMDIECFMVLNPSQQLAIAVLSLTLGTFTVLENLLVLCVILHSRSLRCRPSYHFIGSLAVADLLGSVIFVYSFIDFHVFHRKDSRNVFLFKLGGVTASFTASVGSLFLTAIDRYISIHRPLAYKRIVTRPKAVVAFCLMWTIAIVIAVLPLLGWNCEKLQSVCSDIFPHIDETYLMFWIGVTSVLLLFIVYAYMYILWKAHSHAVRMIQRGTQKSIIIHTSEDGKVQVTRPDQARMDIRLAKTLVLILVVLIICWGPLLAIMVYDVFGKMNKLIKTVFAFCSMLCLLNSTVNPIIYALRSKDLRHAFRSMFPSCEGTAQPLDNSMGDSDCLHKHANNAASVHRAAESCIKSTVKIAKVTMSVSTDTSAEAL
Text: as §1
Membranes were isolated from transfected cells as follows. Monolayers of cultured cells were washed twice with phosphate-buffered saline (PBS). Cells were scraped into 20 mM HEPES, pH 7.4, 10 mM EDTA containing complete cocktail protease inhibitors (Roche, Catalog #11 697 498 001) and were homogenized by an electric-powered mechanical probe homogenizer (Omni GLH; probe G7-195S) for 40 seconds at 7000 rpm. Homogenates were centrifuged 10 minutes at 1000×g at 4° C. The supernatant was collected and was centrifuged for 1 hour at 40,000×g. The supernatant was then decanted and the resulting pellet was re-suspended in 20 mM HEPES, pH 7.4, 5 mM MgCl2, 1 mM EDTA, 10% sucrose with complete cocktail protease inhibitors. Protein concentration of membrane suspensions were measured by Bradford Protein Assay using bovine serum albumin as the standard (BioRad catalog #500-0006). Protein concentrations of membrane suspensions were adjusted with the final buffer in the range of 5 to 10 mg/mL and were stored at −80° C. until further use.
Radioligand binding assays were performed by incubating membranes (2-10 μg protein) prepared from HEK-293 cells expressing recombinant human cannabinoid receptors, CB1 or CB2, at room temperature with 0.5 nM cannabinoid receptor agonist, [^3H]-CP 55,940 (Perkin Elmer, catalog #NET1051) in 0.2 mL of binding buffer (50 mM Tris-HCl, pH 7.5, 5 mM MgCl2, 2.5 mM EDTA) and 0.1% fatty acid free bovine serum albumin (Sigma Cat. #A0821) for 90 minutes. A rapid filtration technique using Millipore FB filter plates (Catalog #MADVNOB) and filtration apparatus (Millipore system Catalog MAVM0960R) with vacuum aspiration was used to harvest and rinse labeled membranes (8 times with 0.2 mL of chilled binding buffer). The radioactivity bound to the filters was counted with 0.05 mL of liquid scintillant (UltraGold MV, PerkinElmer catalog #6013159) in a scintillation counter (Perkin Elmer Microbeta instrument). Nonspecific binding was determined in the presence of unlabeled 1 μM CP 55,940 (Sigma Aldrich, catalog #C1112). Binding data were analyzed using GraphPad Prism (GraphPad Software, Inc. San Diego, Calif.).

[4] = target: T4, human CB2 receptors (Homo sapiens, UniProt P34972); assay: cAMP assay in HEK-293 cells, hCB2 agonist; format: cell-based
T4 construct: (cDNA clone) CNR0200000
T4 sequence (P34972 whole entry): as the sequence (P34972 whole entry) above
Method: as §2
as §3, with “For cannabinoid receptor functional assays measuring agonist effects on cellular cAMP levels, monolayers of cultured cells were harvested with enzyme-free PBS-based cell dissociation buffer (Gibco, Cat#13151-04).” left out, “100%.” for “100%. CB1 or CB2 agonists reduced forskolin-stimulated cAMP signaling. The EC50 value of an agonist compound was defined as the concentration at which 50% of the forskolin-stimulated cAMP synthesis was inhibited.”

[5] = displacement of 0.5 nM [3H]-CP 55,940, read-out: hCB2 IC50 (CP displ)
[6] = displacement of 0.5 nM [3H]-CP 55,940, read-out: hCB1 IC50 (CP displ)

T1 sequence (P21554 whole entry): as the sequence (P21554 whole entry) above

SMILES | hCB1 EC50 (cAMP ag, nM) [1] | IC50 [2, 5] | IC50 [3, 6] | EC50 [4] | IC50 [2] | IC50 [3] | EC50 ([1]; read-out: hCB1 EC50 (cAMP ag)) | hCB2 EC50 (cAMP ag, nM) ([4]; inhibition of forskolin-stimulated cAMP, HEK-293 cells)
Cc1cc2cc(C(=O)c3cccc(Cl)c3Cl)sc2[nH]1 [Compound 2, (2,3-dichlorophenyl)(5-methyl-6H-thieno[2,3-b]pyrrol-2-yl)methanone] | NS (NS means “Not Significant,” which means less than 30% agonist activity when compared to the positive control.) | 1 to 10 µM | > 10 µM | 1 to 10 µM |  |  |  | 
Cc1cc2cc(C(=O)c3ccncc3)sc2n1CCN1CCOCC1 [Compound 40, (5-Methyl-6-(2-morpholinoethyl)-6H-thieno[2,3-b]pyrrol-2-yl)(pyridin-4-yl)methanone] | NS (NS means “Not Significant,” which means less than 30% agonist activity when compared to the positive control.) |  |  | 0.1 to 1 µM | 1 to 10 µM | > 10 µM |  | 
Cc1cc2cc(C(=O)c3ccccn3)sc2n1CCN1CCOCC1 [Compound 16] | NS (NS means “Not Significant,” which means less than 30% agonist activity when compared to the positive control.) |  |  | 0.1 to 1 µM | 1 to 10 µM | > 10 µM |  | 
COc1ccc(C(=O)c2cc3cc(C)n(CCNCC4CCOCC4)c3s2)cn1 [Compound 149, (6-methoxypyridin-3-yl)(5-methyl-6-(2-((tetrahydro-2H-pyran-4-yl)methylamino)ethyl)-6H-thieno[2,3-b]pyrrol-2-yl)methanone] | NS (NS means “Not Significant,” which means less than 30% agonist activity when compared to the positive control.) |  |  | 0.1 to 1 µM | > 10 µM | > 10 µM |  | 
Cc1cc2cc(C(=O)c3cccnc3)sc2n1CCN1CCOCC1 [Compound 14, (5-Methyl-6-(2-morpholinoethyl)-6H-thieno[2,3-b]pyrrol-2-yl)(pyridin-3-yl)methanone] | NS (NS means “Not Significant,” which means less than 30% agonist activity when compared to the positive control.) |  |  | 0.1 to 1 µM | 1 to 10 µM | > 10 µM |  | 
COc1ccc(C(=O)c2cc3cc(C)[nH]c3s2)c(Cl)c1 [Compound 79, (2-Chloro-4-methoxyphenyl)(5-methyl-6H-thieno[2,3-b]pyrrol-2-yl)methanone] | NS (NS means “Not Significant,” which means less than 30% agonist activity when compared to the positive control.) |  |  | 0.1 to 1 µM | > 10 µM | > 10 µM |  | 
Cc1cc2cc(C(=O)c3cccc(Cl)c3Cl)sc2n1CC(=O)N1CCOCC1 [Compound 22, 2-(2-(2,3-Dichlorobenzoyl)-5-methyl-6H-thieno[2,3-b]pyrrol-6-yl)-1-morpholinoethanone] |  |  |  | 0.1 to 1 µM | 1 to 10 µM | > 10 µM | 0.1 to 1 µM | 
Cc1cc2cc(C(=O)c3ccncn3)sc2n1CCN1CCOCC1 [Compound 34, (5-Methyl-6-(2-morpholinoethyl)-6H-thieno[2,3-b]pyrrol-2-yl)(pyrimidin-4-yl)methanone] | NS (NS means “Not Significant,” which means less than 30% agonist activity when compared to the positive control.) | > 10 µM | > 10 µM | 1 to 10 µM |  |  |  | 
COc1ccc(C(=O)c2cc3cc(C)n(CCN4CCCC4C(=O)O)c3s2)cn1 (stereo not shown) [Compound 146, 1-(2-(2-(6-methoxynicotinoyl)-5-methyl-6H-thieno[2,3-b]pyrrol-6-yl)ethyl)pyrrolidine-2-carboxylic acid] | NS (NS means “Not Significant,” which means less than 30% agonist activity when compared to the positive control.) |  |  | 0.1 to 1 µM | 0.1 to 1 µM | > 10 µM |  | 
COc1ccc(C(=O)c2cc3cc(C)n(CCCNS(=O)(=O)c4ccccc4)c3s2)cc1 [Compound 81, N-(3-(2-(4-Methoxybenzoyl)-5-methyl-6H-thieno[2,3-b]pyrrol-6-yl)propyl)benzenesulfonamide] | NS (NS means “Not Significant,” which means less than 30% agonist activity when compared to the positive control.) | 1 to 10 µM | > 10 µM |  |  |  |  | NS (NS means “Not Significant,” which means less than 30% agonist activity when compared to the positive control.)
COc1ccc(C(=O)c2cc3cc(C)n(C(=O)N4CCOCC4)c3s2)cc1 [Compound 66, (2-(4-Methoxybenzoyl)-5-methyl-6H-thieno[2,3-b]pyrrol-6-yl)(morpholino)methanone] | NS (NS means “Not Significant,” which means less than 30% agonist activity when compared to the positive control.) | > 10 µM | > 10 µM |  |  |  |  | 
